What was measured:
[1] = tested on: DHT synthesis in DU-145 cells; test: Dihydrotestosterone (DHT) synthesis by human prostate cells (DU-145), DHT ELISA; format: cell-based; conditions: for Average % DHT Synthesis Observed: % control vs DHT in untreated control cells, testosterone 1 nM, 6 hours, test concentrations typically 0.1, 1, 10 μg/ml
[2] = tested on: VEGF secretion by human dermal papilla cells; test: VEGF secretion by human dermal papilla cells, ELISA; format: cell-based; conditions: for Average % VEGF Secretion: % control vs untreated control cells, overnight, typically 0.1, 1, 10 μg/ml
Procedure: (§1) The ability of each of the ingredients in the compositions of the present invention to stimulate or increase secretion of growth factors, such as VEGF and KGF was measured. One of ordinary skill in the art will appreciate that there are numerous methods for measuring the ability of a substance to stimulate secretion of a growth factor. One example of such a method is set forth below and described in Lachgar S., et al., 1998. “Minoxidil upregulates the expression of vascular endothelial growth factor in human hair dermal papilla cells.” Br J. Dermatol. 138:407-11, the entire contents of which are incorporated by reference herein.
(§2) For example, to measure the ability of a compound to stimulate secretion of a growth factor, 100 mg of each test sample in powder form was measured. A 50 mg/ml total extract of the sample was then prepared by sequential addition of DMSO:ethanol:water in a ratio of 5:3:2. One of ordinary skill in the art will understand that other amounts of sample may be used. For example, to prepare a 100 mg sample, 1 mL DMSO, 0.6 ml ethanol, and 0.4 ml water are mixed together.
(§3) This solution is extensively mixed by vortexing and incubating for 10 minutes in a sonic water bath. Each sample ingredient is diluted from the stock concentration of 50 mg/ml to a test concentration (i.e., typically, 0.1, 1, and 10 μg/ml) in tissue culture media.
(§4) The effect of each test sample ingredient may be measured using human dermal papilla cells, which may be purchased from Cell Applications (San Diego, Calif.). In particular, the cells are plated at 3.5×10^4/well in a standard 24 well tissue culture plate using a proprietary medium supplied by the company. Following plating, the cells are incubated overnight. The following day, the media in the wells is aspirated and replaced with fresh media containing the diluted sample ingredient. The cells are again incubated overnight with the samples.
(§5) Growth factors in the cell culture supernatants are assayed using commercially available ELISA kits according to the manufacture's specifications. For example, an ELISA assay may be run to detected either KGF, VEGF, or both. An ELISA kit for detecting KGF may be purchased from R&D Systems (Minneapolis, Minn.). An ELISA kit for detecting VEGF may be purchased from Biosource International (Camarillo, Calif.).
(§6) Data are reported as % control compared to the level of growth factor secreted from untreated control cells.

[3] = tested on: KGF secretion by human dermal papilla cells; test: KGF secretion by human dermal papilla cells, ELISA; format: cell-based; conditions: for Average % KGF Secretion: % control vs untreated control cells, overnight, typically 0.1, 1, 10 μg/ml
Procedure: as §1, §2, §3, §4, §5, §6

[4] = tested on: proteasome; test: Proteasome inhibition, fluorescent substrate kit; format: biochemical; conditions: % control vs proteasome activity without inhibitor or test sample; test concentration given as 50 mg/ml
Procedure: The ability of each of the ingredients in the compositions of the present invention to inhibit proteasome activity was measured. One of ordinary skill in the art will appreciate that there are numerous methods for measuring the ability of a substance to inhibit proteasome activity. One example of such a method is set forth below and described in U.S. Pat. No. 6,410,512, the entire contents of which are incorporated by reference herein.
as §2, with “inhibit proteasome activity,” for “stimulate secretion of a growth factor,”, “neat” for “powder”
This solution is extensively mixed by vortexing and incubating for 10 minutes in a sonic water bath. Each sample ingredient is diluted from the stock concentration to a test concentration of 50 mg/ml in proteasome reaction buffer media.
Inhibition of proteasome activity may be assayed using a proteasome kit that is commercially available, for example from Boston Biochem (Boston, Mass.). Test sample ingredients are first added to the proteasome provided with the kit. The fluorescent proteasome substrate is then added and cleavage of the substrate by the proteasome is monitored using a fluorescence plate reader. Data are expressed as % control compared to proteasome activity without any inhibitor or test sample added.
as §6

Row | Compound | Average % DHT Synthesis Observed [1] | Average % VEGF Secretion [2] | Average % KGF Secretion [3] | Effect on VEGF secretion, in words (summary of Table 3) [2] | Average % Proteasome Activity [4] | Effect on KGF secretion, in words (summary of Table 3) [3] | Effect on DHT synthesis, in words (summary of Table 2) [1]
1 | O=c1cc(-c2ccc(O)c(-c3c(O)cc(O)c4c(=O)cc(-c5ccc(O)cc5)oc34)c2)oc2cc(O)cc(O)c12 [Amentoflavone] | 163.9% | 186.2% | 209.5% | – | – | – | –
2 | CC1=C(/C=C/C(C)=C/C=C/C(C)=C/C=C/C=C(C)/C=C/C=C(C)/C=C/C2=C(C)C(=O)[C@@H](O)CC2(C)C)C(C)(C)C[C@H](O)C1=O [Astaxanthin] | 103.9% | 249.4% | 327.1% | most potent stimulators of VEGF | 114.0% | – | –
3 | C[C@@H]1O[C@@H](O[C@H]2C(=O)c3c(O)cc(O)cc3O[C@@H]2c2ccc(O)c(O)c2)[C@H](O)[C@H](O)[C@H]1O [Astilbin] | 78.0% | 122.9% | 85.4% | – | 47.7% | most potent inhibitors of KGF secretion | –
4 | O=C(CCCCc1ccc2c(c1)OCO2)N1CCCCC1 [Cosmoperine ™, tetrahydropiperine] | 130.1% | 172.5% | 75.1% | – | 67.6% | most potent inhibitors of KGF secretion | –
5 | O=c1cc(-c2ccc(O)c(O)c2)oc2cc(O)cc(O)c12 [Luteolin] | 96.2% | 123.2% | 147.8% | – | 76.4% | – | –
6 | disodium lauraminodipropionate tocopheryl phosphate [Vital ET ™] | 72.1% | 107.9% | 103.0% | – | 68.3% | – | most potent inhibitors of DHT synthesis
